This assay concerns the target T1, Human PD-L1/PD-1 (Homo sapiens, UniProt Q9NZQ7).
T1 construct: TVMV protease cleavage site (C); made in house; host or cells: HEK293T cells
As to the kind of experiment: HTRF Human PD-L1/PD-1 binding assay (PD-1-Ig/PD-L1-His). The conditions noted are these: PD-L1-His 10 nM, PD-1-Ig 20 nM. In outline:
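Step 1: compound with PD-L1-His (10 nM final), 15 min. Step 2: PD-1-Ig (20 nM final), 15 min. Step 3: Eu-cryptate anti-Ig (1 nM) plus APC anti-His (20 nM), 30 min equilibration. Signal taken as 665 nm/620 nm ratio.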
(In general: In TR-FRET formats the signal depends on donor and acceptor labels being close together.)

Where [1] appears, read: class symbol, read-out: HTRF Human PD-L1/PD-1 Binding Assay IC50 Range.

Like-named read-outs stand apart in the source and are kept apart here. *1 amine or outer side, *2 acyl side, *3 side chain or, on linkers, in order; H or OH if unused. Where a SMILES comes first, the peptide text is derived from it. Bridges are numbered along the chain shown (N, C = ends). [ ]: non-standard residue; d: D form. ξ: configuration not given here. Trp(1-CH2COOH) = N[C@@H](Cc1cn(CC(=O)O)c2ccccc12)C(=O)O; Phe(3,4,5-F3) = N[C@@H](Cc1cc(F)c(F)c(F)c1)C(=O)O; Phe(3,4-F2) = N[C@@H](Cc1ccc(F)c(F)c1)C(=O)O; d(cisHyp) = O=C(O)[C@H]1C[C@@H](O)CN1; NMeY = CN[C@@H](Cc1ccc(O)cc1)C(=O)O; Hyp = O=C(O)[C@@H]1C[C@@H](O)CN1; NMeF = CN[C@@H](Cc1ccccc1)C(=O)O; X1 = O=C([C@H]1COCCN1[*:1])[*:2]; dNMeF = CN[C@H](Cc1ccccc1)C(=O)O; dHyp = O=C(O)[C@H]1C[C@H](O)CN1; NMehSer = CN[C@@H](CCO)C(=O)O; NMeNle = CCCC[C@H](NC)C(=O)O; hSer = N[C@@H](CCO)C(=O)O; NMeA = CN[C@@H](C)C(=O)O; Orn = NCCC[C@H](N)C(=O)O; Dab = NCC[C@H](N)C(=O)O; Dap = NC[C@H](N)C(=O)O; ξC = NC(CS)C(=O)O; Sar = CNCC(=O)O

T1 sequence (Q9NZQ7 with tags, fused parts or gaps): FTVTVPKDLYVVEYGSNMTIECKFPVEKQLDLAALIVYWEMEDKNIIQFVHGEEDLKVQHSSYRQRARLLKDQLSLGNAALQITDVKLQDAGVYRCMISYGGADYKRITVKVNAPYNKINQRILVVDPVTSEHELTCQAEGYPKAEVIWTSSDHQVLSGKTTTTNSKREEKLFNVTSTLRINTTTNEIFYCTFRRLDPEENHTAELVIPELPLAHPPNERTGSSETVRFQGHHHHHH

Consider `COCC[C@H]1C(=O)N2C[C@@H](O)C[C@@H]2C(=O)N[C@@H](CC(=O)O)C(=O)N[C@@H](C(C)C)C(=O)N(C)[C@@H](Cc2ccccc2)C(=O)N[C@@H](CCC(N)=O)C(=O)N2CCOC[C@@H]2C(=O)N[C@@H](Cc2c[nH]c3ccccc23)C(=O)N[C@@H](Cc2ccc(O)cc2)C(=O)N[C@@H](CCCN)C(=O)N[C@H](C(=O)NCC(N)=O)CSCC(=O)N[C@@H](Cc2cc(F)c(F)c(F)c2)C(=O)N(C)[C@@H](Cc2ccccc2)C(=O)N1C` [Example 9267] ({CH2CO}-[Phe(3,4,5-F3)][NMeF][NMehSer](Me)[dHyp]DV[NMeF]Q[X1]WY[Orn]CG-NH2; thioether N-13), for which the IC50 under setting [1] lay in the range of 1 to 9.9 nM.

As for `CCCC[C@H]1C(=O)N(C)[C@@H](CCCC)C(=O)N[C@@H](CCC(=O)O)C(=O)NC(C(=O)NCC(N)=O)CSCC(=O)N[C@@H](Cc2ccc(O)cc2)C(=O)N(C)[C@@H](C)C(=O)N[C@@H](CC(N)=O)C(=O)N2CCC[C@H]2C(=O)N[C@@H](CC(N)=O)C(=O)N[C@@H](CC(C)C)C(=O)N2C[C@H](O)C[C@H]2C(=O)N[C@@H](Cc2c[nH]c3ccccc23)C(=O)N[C@@H](CN)C(=O)N[C@@H](Cc2c[nH]c3ccccc23)C(=O)N1C` (some centres unmarked) [Example 9177] ({CH2CO}-Y[NMeA]NPNL[Hyp]W[Dap]W[NMeNle][NMeNle]E[ξC]G-NH2; thioether N-14), the IC50 under setting [1] is 100 to 990 nM.

Turning to `CCCC[C@H]1C(=O)N(C)[C@@H](CCCC)C(=O)N[C@@H](C)C(=O)N[C@H](C(=O)NCC(N)=O)CSCC(=O)N[C@@H](Cc2ccc(O)cc2)C(=O)N(C)[C@@H](C)C(=O)N[C@@H](CC(=O)O)C(=O)N2CCC[C@H]2C(=O)N[C@@H](Cc2cnc[nH]2)C(=O)N[C@@H](CCCN)C(=O)N2C[C@H](O)C[C@H]2C(=O)N[C@@H](Cc2c[nH]c3ccccc23)C(=O)N[C@@H](CO)C(=O)N[C@@H](Cc2cn(CC(=O)O)c3ccccc23)C(=O)N1C` [Example 6249] ({CH2CO}-Y[NMeA]DPH[Orn][Hyp]WS[Trp(1-CH2COOH)][NMeNle][NMeNle]ACG-NH2; thioether N-14), under setting [1], the IC50 lay within 1 to 9.9 nM.

As for `CCCC[C@H]1C(=O)N2CCC[C@@H]2C(=O)N[C@@H](CO)C(=O)N[C@@H](C)C(=O)N(C)[C@@H](Cc2ccccc2)C(=O)N[C@@H](Cc2ccc(O)cc2)C(=O)N(C)CC(=O)N[C@@H](Cc2c[nH]c3ccccc23)C(=O)N[C@@H](Cc2ccc(O)cc2)C(=O)N[C@@H](CC(C)C)C(=O)N[C@H](C(=O)NCC(N)=O)CSCC(=O)N[C@@H](Cc2ccccc2)C(=O)N(C)[C@@H](Cc2ccccc2)C(=O)N1C` [Example 10054] ({CH2CO}-F[NMeF][NMeNle][dP]SA[NMeF]Y[Sar]WYLCG-NH2; thioether N-13), under setting [1], the IC50 fell in the range of 100 to 990 nM.

With `CCCC[C@H]1C(=O)N2C[C@H](O)C[C@@H]2C(=O)N[C@@H](CC(=O)O)C(=O)N[C@@H](C(C)C)C(=O)N(C)[C@H](Cc2ccccc2)C(=O)N[C@@H](CCCCN)C(=O)N2C[C@H](O)C[C@@H]2C(=O)N[C@@H](Cc2c[nH]c3ccccc23)C(=O)N[C@@H](Cc2ccc(O)cc2)C(=O)N[C@@H](CC(C)C)C(=O)N[C@H](C(=O)NCC(N)=O)CSCC(=O)N[C@@H](Cc2ccc(F)c(F)c2)C(=O)N(C)[C@@H](Cc2ccccc2)C(=O)N1C` [Example 9295] ({CH2CO}-[Phe(3,4-F2)][NMeF][NMeNle][d(cisHyp)]DV[dNMeF]K[d(cisHyp)]WYLCG-NH2; thioether N-13), the IC50 under setting [1] fell in the range of 1 to 9.9 nM.

With `CCCC[C@H]1C(=O)N(C)CC(=O)N[C@@H](CC(N)=O)C(=O)N[C@@H](C(C)C)C(=O)N(C)[C@@H](Cc2ccccc2)C(=O)N[C@@H](Cc2ccc(O)cc2)C(=O)N(C)CC(=O)N[C@@H](Cc2c[nH]c3ccccc23)C(=O)N[C@@H](Cc2ccc(O)cc2)C(=O)N[C@@H](CCCN)C(=O)N[C@H](C(=O)NCC(N)=O)CSCC(=O)N[C@@H](Cc2ccccc2)C(=O)N(C)[C@@H](Cc2ccncc2)C(=O)N1C` (single isomer, unassigned) [Example 3638-B], the IC50 under setting [1] lay in the range of 10 to 99.9 nM.

Regarding `CCCC[C@H]1NC(=O)[C@H](Cc2c[nH]c3ccccc23)NC(=O)[C@H](CO)NC(=O)[C@H](Cc2c[nH]c3ccccc23)NC(=O)[C@@H]2C[C@@H](O)CN2C(=O)[C@H](CC(C)C)NC(=O)[C@H](Cc2cnc[nH]2)NC(=O)[C@@H]2CCCN2C(=O)[C@H](CC(N)=O)NC(=O)[C@H](C)N(C)C(=O)[C@H](Cc2ccc(O)cc2)NC(=O)CSCC(C(=O)NCC(N)=O)NC(=O)[C@H](CCC(=O)O)NC(=O)[C@H](CCCC)N(C)C1=O` (some centres unmarked) [Example 10131], the IC50 (read-out: HTRF Human PD-L1/PD-1 Binding Assay IC50) turned out to be 2900 nM.

Consider `CCCC[C@H]1C(=O)N(C)[C@@H](CCCC)C(=O)N[C@@H](CC(C)C)C(=O)N[C@H](C(=O)NCC(N)=O)CSCC(=O)N[C@@H](Cc2ccc(O)cc2)C(=O)N(C)[C@@H](C)C(=O)N[C@@H](CC(=O)O)C(=O)N2CCC[C@H]2C(=O)N[C@@H](CN)C(=O)N[C@@H](CCC(=O)O)C(=O)N2C[C@H](O)C[C@H]2C(=O)N[C@@H](Cc2c[nH]c3ccccc23)C(=O)N[C@@H](CCN)C(=O)N[C@@H](Cc2cn(CC(=O)O)c3ccccc23)C(=O)N1C` [Example 5180] ({CH2CO}-Y[NMeA]DP[Dap]E[Hyp]W[Dab][Trp(1-CH2COOH)][NMeNle][NMeNle]LCG-NH2; thioether N-14), for which the IC50 under setting [1] fell in the range of 1 to 9.9 nM.

For the molecule `CCCC[C@H]1C(=O)N(C)[C@@H](CCCC)C(=O)N[C@@H](CCCNC(=N)N)C(=O)NC(C(=O)NCC(N)=O)CSCC(=O)N[C@@H](Cc2ccc(O)cc2)C(=O)N(C)[C@@H](C)C(=O)N[C@@H](CC(N)=O)C(=O)N2CCC[C@H]2C(=O)N[C@@H](CCO)C(=O)N[C@@H](CCO)C(=O)N2C[C@H](O)C[C@H]2C(=O)N[C@@H](Cc2c[nH]c3ccccc23)C(=O)N[C@@H](CO)C(=O)N[C@@H](Cc2c[nH]c3ccccc23)C(=O)N1C` (some centres unmarked) [Example 10043] ({CH2CO}-Y[NMeA]NP[hSer][hSer][Hyp]WSW[NMeNle][NMeNle]R[ξC]G-NH2; thioether N-14), under setting [1], the IC50 was 1 to 9.9 nM.

With `CCCC[C@H]1C(=O)N2C[C@H](O)C[C@@H]2C(=O)N[C@@H](CC(=O)O)C(=O)N[C@@H](C(C)C)C(=O)N(C)[C@@H](Cc2ccccc2)C(=O)N[C@@H](CCC(=O)O)C(=O)N2C[C@H](O)C[C@@H]2C(=O)N[C@@H](Cc2c[nH]c3ccccc23)C(=O)N[C@@H](Cc2ccc(O)cc2)C(=O)N[C@@H](CCCCN)C(=O)N[C@H](C(=O)NCC(N)=O)CSCC(=O)N[C@@H](Cc2cc(F)c(F)c(F)c2)C(=O)N(C)[C@@H](Cc2ccccc2)C(=O)N1C` [Example 9331] ({CH2CO}-[Phe(3,4,5-F3)][NMeF][NMeNle][d(cisHyp)]DV[NMeF]E[d(cisHyp)]WYKCG-NH2; thioether N-13), the IC50 under setting [1] lay within 1 to 9.9 nM.

As for `CCCC[C@H]1C(=O)N2CCC[C@@H]2C(=O)N[C@@H](CC(=O)O)C(=O)N[C@@H](C(C)C)C(=O)N(C)[C@@H](Cc2ccccc2)C(=O)N[C@@H](CCC(=O)O)C(=O)N2CCOC[C@@H]2C(=O)N[C@@H](Cc2c[nH]c3ccccc23)C(=O)N[C@@H](Cc2ccc(O)cc2)C(=O)N[C@@H](CC(C)C)C(=O)N[C@H](C(=O)NCC(N)=O)CSCC(=O)N[C@@H](Cc2cc(F)c(F)c(F)c2)C(=O)N(C)[C@@H](Cc2ccc(O)cc2)C(=O)N1C` [Example 10615] ({CH2CO}-[Phe(3,4,5-F3)][NMeY][NMeNle][dP]DV[NMeF]E[X1]WYLCG-NH2; thioether N-13), the IC50 under setting [1] fell in the range of 10 to 99.9 nM.

For the origin of these results see patent publication US10538555B2, “Macrocyclic inhibitors of the PD-1/PD-L1 and CD80(B7-1)/PD-L1 protein/protein interactions” (BRISTOL-MYERS SQUIBB COMPANY, priority 2014, dated 2020).
